In PubChem BioAssay AID651796 (The Scripps Research Institute Molecular Screening Center, 2012):
Active and inactive are the calls of the source. How the calls were made is not given here.

Biological target: Nuclear receptor coactivator 1 (Homo sapiens) (UniProt Q15788)
Assay: SRC1 (NCOA1) coactivator inhibitors, late-stage follow-up, cell-based, luminescence (AID 651796)
Conditions: cell-based SRC1 reporter

Chain of Nuclear receptor coactivator 1 (Homo sapiens) (Q15788 whole entry, looked up): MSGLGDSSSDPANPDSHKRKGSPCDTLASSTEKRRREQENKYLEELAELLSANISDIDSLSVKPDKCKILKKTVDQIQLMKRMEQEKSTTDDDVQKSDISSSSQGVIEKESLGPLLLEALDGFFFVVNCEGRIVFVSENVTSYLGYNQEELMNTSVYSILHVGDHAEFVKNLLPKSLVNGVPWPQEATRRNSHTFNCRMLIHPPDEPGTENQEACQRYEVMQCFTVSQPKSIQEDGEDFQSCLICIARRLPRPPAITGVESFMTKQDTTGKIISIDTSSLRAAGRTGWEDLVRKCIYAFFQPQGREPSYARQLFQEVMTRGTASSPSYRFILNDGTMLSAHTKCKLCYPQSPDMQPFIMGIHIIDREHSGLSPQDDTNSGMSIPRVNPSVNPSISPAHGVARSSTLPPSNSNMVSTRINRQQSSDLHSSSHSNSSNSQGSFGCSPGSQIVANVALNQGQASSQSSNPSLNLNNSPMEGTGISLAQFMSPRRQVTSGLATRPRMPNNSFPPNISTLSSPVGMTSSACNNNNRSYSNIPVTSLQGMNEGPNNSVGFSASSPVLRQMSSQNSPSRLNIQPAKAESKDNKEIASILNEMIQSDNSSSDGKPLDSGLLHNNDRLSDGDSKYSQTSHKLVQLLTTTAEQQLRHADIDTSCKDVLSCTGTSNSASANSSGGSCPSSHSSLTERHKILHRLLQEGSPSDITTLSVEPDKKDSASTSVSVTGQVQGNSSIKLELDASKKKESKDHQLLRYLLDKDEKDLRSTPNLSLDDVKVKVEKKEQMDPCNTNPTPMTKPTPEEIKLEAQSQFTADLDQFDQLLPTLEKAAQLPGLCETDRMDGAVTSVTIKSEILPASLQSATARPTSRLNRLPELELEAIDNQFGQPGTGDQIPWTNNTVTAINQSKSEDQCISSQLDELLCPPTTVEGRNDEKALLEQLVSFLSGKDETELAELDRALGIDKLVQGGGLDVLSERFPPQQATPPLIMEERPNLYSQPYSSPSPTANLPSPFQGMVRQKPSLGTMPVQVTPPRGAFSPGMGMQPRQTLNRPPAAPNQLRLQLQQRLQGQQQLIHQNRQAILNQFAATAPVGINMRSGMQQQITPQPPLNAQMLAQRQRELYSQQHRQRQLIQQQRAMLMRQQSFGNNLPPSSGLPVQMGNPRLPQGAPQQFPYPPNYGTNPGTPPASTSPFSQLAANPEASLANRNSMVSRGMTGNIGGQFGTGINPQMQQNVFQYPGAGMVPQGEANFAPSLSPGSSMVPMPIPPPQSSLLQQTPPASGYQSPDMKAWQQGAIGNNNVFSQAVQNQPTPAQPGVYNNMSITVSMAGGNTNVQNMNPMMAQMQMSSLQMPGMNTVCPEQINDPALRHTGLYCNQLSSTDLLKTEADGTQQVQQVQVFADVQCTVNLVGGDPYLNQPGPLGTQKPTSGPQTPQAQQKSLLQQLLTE

IC50	Structure (SMILES)
inactive	COc1ccc(Nc2ncnc3ccc(Br)cc23)c(OC)c1
9.94 µM	COc1ccc(NC(=O)CN(C)C(=O)C2(c3ccccc3)CCCC2)cc1
